The supplement of paper PMC11061612

Columns and labels:
Assay in all cases: combination Emax (second highest fraction inhibited in the dose matrix, 72 h); higher = more inhibition; extreme values may be limits of the assay
[1] = test system: CL-11 (Colorectal Carcinoma)
Summary of the method: (§1)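 Bliss excess equals the observed combination effect minus the expected value EA + EB − EA·EB, where EA and EB are the effects of each agent alone. Combination Emax is the second-highest inhibition within the matrix. Inhibition was scaled from CellTiter-Glo 2.0 luminescence, with 0 set by vehicle wells and 1 by blank wells, after 72 hours of two-drug dosing of cells plated in 1536-well plates.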

[2] = test system: CPC-N (Small Cell Lung Carcinoma)
Summary of the method: as §1

[3] = test system: ES6 (Ewing's Sarcoma)
Summary of the method: as §1

[4] = test system: GAK (Melanoma)
Summary of the method: as §1

[5] = test system: MOLT-13 (T-Lymphoblastic Leukemia)
Summary of the method: as §1

[6] = test system: NAMALWA (Burkitt's Lymphoma)
Summary of the method: as §1

[7] = test system: NCI-H1963 (Small Cell Lung Carcinoma)
Summary of the method: as §1

[8] = test system: NCI-H226 (Mesothelioma)
Summary of the method: as §1

[9] = test system: SAT (Head and Neck Carcinoma)
Summary of the method: as §1

[10] = test system: SK-CO-1 (Colorectal Carcinoma)
Summary of the method: as §1

[11] = test system: SK-N-SH (Neuroblastoma)
Summary of the method: as §1

[12] = test system: SNU-423 (Hepatocellular Carcinoma)
Summary of the method: as §1

[13] = test system: TUR (Acute Myeloid Leukemia)
Summary of the method: as §1

[14] = test system: ZR-75-30 (Breast Carcinoma)
Summary of the method: as §1

Row | SMILES | combination Emax [1] | combination Emax [2] | combination Emax [3] | combination Emax [4] | combination Emax [5] | combination Emax [6] | combination Emax [7] | combination Emax [8] | combination Emax [9] | combination Emax [10] | combination Emax [11] | combination Emax [12] | combination Emax [13] | combination Emax [14]
1 | CC1(C)CCC(CN2CCN(c3ccc(C(=O)NS(=O)(=O)c4ccc(NCC5CCOCC5)c([N+](=O)[O-])c4)c(Oc4cnc5[nH]ccc5c4)c3)CC2)=C(c2ccc(Cl)cc2)C1 [Venetoclax] + CCN(CCO)CCCOc1ccc2c(Nc3cc(CC(=O)Nc4cccc(F)c4)[nH]n3)ncnc2c1 [AZD2811] (first compound max 1 µM, 7x7, partner max 1 µM) | 0.267 | 0.942 | 0.32 | 0.242 | 1 | 0.56 | 0.893 | 0.158 | 0.187 | 0.583 | 0.73 | 0.229 | 0.258 | 0.11
2 | COc1cccc(OCCCN)c1-c1cc(Nc2cnc(C#N)cn2)n[nH]1 [Prexasertib] + C=CCn1c(=O)c2cnc(Nc3ccc(N4CCN(C)CC4)cc3)nc2n1-c1cccc(C(C)(C)O)n1 [AZD1775] (first compound max 1 µM, partner max 1 µM) | 0.834 | 1 | 0.603 | 0.783 | 1 | 0.989 | 1 | 0.393 | 0.666 | 0.775 | 0.939 | 0.878 | 1 | 0.137
3 | CN(CCO)CC[C@H](CSc1ccccc1)Nc1ccc(S(=O)(=O)NC(=O)c2ccc(N3CCC([C@@H](O)c4ccccc4-c4ccc(Cl)cc4)CC3)cc2)cc1S(=O)(=O)C(F)(F)F [AZD4320] + C[C@@H]1COCCN1C2=NC(=NC(=C2)C3(CC3)[S@](=N)(=O)C)C4=C5C=CNC5=NC=C4 [AZD6738] (first compound max 1 µM, 7x7, partner max 10 µM) | 0.895 | 1 | 0.665 | 0.793 | 1 | 0.928 | 1 | 0.193 | 0.587 | 0.928 | 0.988 | 0.624 | 0.971 | 0.286
4 | Cc1c2c(nn1C)CSCc1cc(n(C)n1)CSc1cc(c3ccccc3c1)OCCCc1c(C(=O)O)n(C)c3c-2c(Cl)ccc13 [AZD5991] + C=CCn1c(=O)c2cnc(Nc3ccc(N4CCN(C)CC4)cc3)nc2n1-c1cccc(C(C)(C)O)n1 [AZD1775] (first compound max 1 µM, partner max 1 µM) | 0.507 | 0.967 | 0.386 | 0.802 | 1 | 0.996 | 0.945 | 0.269 | 0.829 | 0.517 | 0.86 | 0.591 | 0.965 | 0.364
5 | CC1(C)CCC(CN2CCN(c3ccc(C(=O)NS(=O)(=O)c4ccc(NCC5CCOCC5)c([N+](=O)[O-])c4)c(Oc4cnc5[nH]ccc5c4)c3)CC2)=C(c2ccc(Cl)cc2)C1 [Venetoclax] + C1CN(CCC1(C(=O)N[C@@H](CCO)C2=CC=C(C=C2)Cl)N)C3=NC=NC4=C3C=CN4 [Capivasertib] (first compound max 1 µM, 7x7, partner max 3 µM) | 0.162 | 0.84 | 0.47 | 0.152 | 0.566 | 0.534 | 0.775 | 0.241 | 0.377 | 0.187 | 0.394 | 0.393 | 0.599 | 0.312
6 | COc1cccc(OCCCN)c1-c1cc(Nc2cnc(C#N)cn2)n[nH]1 [Prexasertib] + Cc1cc2ncnn2cc1Nc1ncc2c(n1)n(C1CCOCC1)c(=O)n2C [AZD7648] (first compound max 1 µM, 7x7, partner max 10 µM) | 0.788 | 1 | 0.625 | 0.708 | 1 | 0.994 | 0.975 | 0.209 | 0.573 | 0.593 | 0.844 | 0.735 | 1 | 0.17
7 | CC1(C)CCC(CN2CCN(c3ccc(C(=O)NS(=O)(=O)c4ccc(NCC5CCOCC5)c([N+](=O)[O-])c4)c(Oc4cnc5[nH]ccc5c4)c3)CC2)=C(c2ccc(Cl)cc2)C1 [Venetoclax] + C[C@@H]1COCCN1C2=NC(=NC(=C2)C3(CC3)[S@](=N)(=O)C)C4=C5C=CNC5=NC=C4 [AZD6738] (first compound max 1 µM, 7x7, partner max 10 µM) | 0.681 | 0.936 | 0.571 | 0.528 | 1 | 0.889 | 0.985 | 0.243 | 0.423 | 0.55 | 0.915 | 0.441 | 0.963 | 0.191
8 | CC1(C)CCC(CN2CCN(c3ccc(C(=O)NS(=O)(=O)c4ccc(NCC5CCOCC5)c([N+](=O)[O-])c4)c(Oc4cnc5[nH]ccc5c4)c3)CC2)=C(c2ccc(Cl)cc2)C1 [Venetoclax] + Cc1cc2ncnn2cc1Nc1ncc2c(n1)n(C1CCOCC1)c(=O)n2C [AZD7648] (first compound max 1 µM, 7x7, partner max 10 µM) | 0.157 | 0.84 | 0.37 | 0.204 | 0.785 | 0.459 | 0.744 | 0.171 | 0.284 | 0.229 | 0.543 | 0.292 | 0.102 | 0.123
9 | Cc1cc2ncnn2cc1Nc1ncc2c(n1)n(C1CCOCC1)c(=O)n2C [AZD7648] + CN(C)CCCOc1ccc(-c2ccc3ncc4c(c3c2)n(C2CCOCC2)c(=O)n4C)cn1 [AZD0156] (first compound max 10 µM, 7x7, partner max 1 µM) | 0.255 | 0.368 | 0.37 | 0.303 | 0.15 | 0.266 | 0.211 | 0.271 | 0.378 | 0.309 | 0.366 | 0.341 | 0.164 | 0.194
10 | COc1cccc2c1C(=O)c1c(O)c3c(c(O)c1C2=O)C[C@@](O)(C(=O)CO)C[C@@H]3O[C@H]1C[C@H](N)[C@H](O)[C@H](C)O1 [Doxorubicin] + Cc1cc2ncnn2cc1Nc1ncc2c(n1)n(C1CCOCC1)c(=O)n2C [AZD7648] (first compound max 1 µM, 7x7, partner max 10 µM) | 0.602 | 0.911 | 0.573 | 0.803 | 0.986 | 0.976 | 0.799 | 0.802 | 0.616 | 0.77 | 0.974 | 0.713 | 0.935 | 0.3
11 | Cc1cc2ncnn2cc1Nc1ncc2c(n1)n(C1CCOCC1)c(=O)n2C [AZD7648] + O=C(c1cc(Cc2n[nH]c(=O)c3ccccc23)ccc1F)N1CCN(C(=O)C2CC2)CC1 [Olaparib] (first compound max 10 µM, 7x7, partner max 10 µM) | 0.144 | 0.31 | 0.222 | 0.0973 | 0.35 | 0.578 | 0.299 | 0.149 | 0.164 | 0.488 | 0.444 | 0.275 | 0.114 | 0.12
12 | C=CCn1c(=O)c2cnc(Nc3ccc(N4CCN(C)CC4)cc3)nc2n1-c1cccc(C(C)(C)O)n1 [AZD1775] + C[C@@H]1COCCN1C2=NC(=NC(=C2)C3(CC3)[S@](=N)(=O)C)C4=C5C=CNC5=NC=C4 [AZD6738] (first compound max 1 µM, partner max 10 µM) | 0.774 | 0.999 | 0.652 | 0.821 | 1 | 0.961 | 1 | 0.466 | 0.469 | 0.738 | 0.953 | 0.747 | 0.938 | 0.296
13 | CC1(C)CCC(CN2CCN(c3ccc(C(=O)NS(=O)(=O)c4ccc(NCC5CCOCC5)c([N+](=O)[O-])c4)c(Oc4cnc5[nH]ccc5c4)c3)CC2)=C(c2ccc(Cl)cc2)C1 [Venetoclax] + CN(C)CCCOc1ccc(-c2ccc3ncc4c(c3c2)n(C2CCOCC2)c(=O)n4C)cn1 [AZD0156] (first compound max 1 µM, 7x7, partner max 1 µM) | 0.11 | 0.78 | 0.349 | 0.293 | 0.718 | 0.613 | 0.565 | 0.212 | 0.204 | 0.271 | 0.394 | 0.271 | 0.0455 | 0.105
14 | CCN(CCO)CCCOc1ccc2c(Nc3cc(CC(=O)Nc4cccc(F)c4)[nH]n3)ncnc2c1 [AZD2811] + O=C(c1cc(Cc2n[nH]c(=O)c3ccccc23)ccc1F)N1CCN(C(=O)C2CC2)CC1 [Olaparib] (first compound max 1 µM, 7x7, partner max 10 µM) | 0.202 | 0.807 | 0.249 | 0.295 | 0.997 | 0.617 | 0.856 | 0.236 | 0.215 | 0.615 | 0.479 | 0.264 | 0.285 | 0.185
15 | Cc1c2c(nn1C)CSCc1cc(n(C)n1)CSc1cc(c3ccccc3c1)OCCCc1c(C(=O)O)n(C)c3c-2c(Cl)ccc13 [AZD5991] + CN(C)CCCOc1ccc(-c2ccc3ncc4c(c3c2)n(C2CCOCC2)c(=O)n4C)cn1 [AZD0156] (first compound max 1 µM, 7x7, partner max 1 µM) | 0.164 | 0.314 | 0.279 | 0.266 | 1 | 0.996 | 0.354 | 0.293 | 0.638 | 0.363 | 0.454 | 0.297 | 0.477 | 0.286
16 | CN(CCO)CC[C@H](CSc1ccccc1)Nc1ccc(S(=O)(=O)NC(=O)c2ccc(N3CCC([C@@H](O)c4ccccc4-c4ccc(Cl)cc4)CC3)cc2)cc1S(=O)(=O)C(F)(F)F [AZD4320] + CN(C)CCCOc1ccc(-c2ccc3ncc4c(c3c2)n(C2CCOCC2)c(=O)n4C)cn1 [AZD0156] (first compound max 1 µM, 7x7, partner max 1 µM) | 0.144 | 0.967 | 0.188 | 0.209 | 0.949 | 0.158 | 1 | 0.224 | 0.193 | 0.712 | 0.641 | 0.515 | 0.118 | 0.169
